Measured values reported in ChEMBL document CHEMBL4665912, “Novel Compounds as STING Modulators for Treating Hepatitis B Virus Infections” (ACS Med Chem Lett, 2020).

Assays:
[1] = biological target: T1, Stimulator of interferon genes protein (Homo sapiens, UniProt Q86WV6); test: Agonist activity at STING in human PBMC cells assessed as increase in […] by electrochemiluminescence assay; format: cell-based
[2] = biological target: T1, Stimulator of interferon genes protein; test: Competitive binding affinity to human recombinant C-terminal Avi-tag STING using Alexa 488 probe incubated for 15 mins by FRET based assay

T1 sequence (Q86WV6 whole entry): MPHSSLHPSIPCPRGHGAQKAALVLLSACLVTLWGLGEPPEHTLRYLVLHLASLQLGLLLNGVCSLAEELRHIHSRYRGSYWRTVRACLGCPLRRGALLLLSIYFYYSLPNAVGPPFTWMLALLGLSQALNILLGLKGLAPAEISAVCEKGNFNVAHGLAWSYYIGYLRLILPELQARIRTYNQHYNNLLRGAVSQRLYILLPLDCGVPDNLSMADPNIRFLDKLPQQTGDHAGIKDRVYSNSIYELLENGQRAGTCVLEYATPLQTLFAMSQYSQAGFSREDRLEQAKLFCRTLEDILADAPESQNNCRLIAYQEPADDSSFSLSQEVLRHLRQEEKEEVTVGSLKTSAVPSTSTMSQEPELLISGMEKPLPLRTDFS

Row | SMILES | EC50 [1] [nM] | IC50 [2] [nM]
1 | CCn1nc(C)cc1C(=O)/N=c1\n(C)c2ccccc2n1C/C=C/Cn1/c(=N/C(=O)c2cc(C)nn2CC)n(C)c2cccc(CN3CCCCC3)c21 | < 1 | < 1
2 | CCn1nc(C)cc1C(=O)/N=c1\n(C)c2ccccc2n1C/C=C/Cn1/c(=N/C(=O)c2cc(C)nn2CC)n(C)c2c(CO)cccc21 | < 1 | < 1
3 | CCn1nc(C)cc1C(=O)/N=c1\n(C)c2cccc(OC)c2n1C/C=C/Cn1/c(=N/C(=O)c2cc(C)nn2CC)n(C)c2cccc(OCCCO)c21 | < 1 | < 1
4 | CCn1nc(C)cc1C(=O)/N=c1\n(C)c2ccccc2n1C/C=C/Cn1/c(=N/C(=O)c2cc(C)nn2CC)n(C)c2cccc(C(O)CO)c21 (configuration not stated) | 1 | < 1
5 | CCn1nc(C)cc1C(=O)/N=c1\n(C)c2ccccc2n1C/C=C/Cn1/c(=N/C(=O)c2cc(C)nn2CC)n(C)c2cccc(CN3CCCCCC3)c21 | < 1 | < 1
6 | CCn1nc(C)cc1C(=O)/N=c1\n(C)c2ccccc2n1C/C=C/Cn1/c(=N/C(=O)c2cc(C)nn2CC)n(C)c2cccc(CN3CCOCC3)c21 | < 1 | < 1
